{
  "source": "patent US10421782B2",
  "about": "“Cyclic cationic peptides with antimicrobial activity” (I.C.F. S.R.L., priority 2012, dated 2019)",
  "key": {"S. aureus ATCC 25923": {"test_system": "S. aureus ATCC 25923", "test": "Broth-microdilution test and subsequent plating on agar, Gram-positive bacteria", "type": "cell-based, Staphylococcus aureus", "settings": "meticillin-sensitive, 2 h contact at 37° C., CFU count after 24 h", "experimental": "(§1) For each bacterial strain, 3-5 morphologically similar colonies were drawn from fresh cultures, inoculated in Brain Hearth Infusion broth liquid medium and incubated at the temperature of 37° C. under shaking at 225 r.p.m. for 3-4 h. Subsequently, the bacterial suspension was centrifuged at 1000 g for 20 min and the thus obtained pellet was resuspended in phosphate buffer 10 mM. Turbidity was measured in a spectrophotometer with absorbance at 600 nm, equivalent in the range 0.08-0.13 to a concentration of about 10^8 CFU/ml. The bacterial suspension was diluted 1:100 in phosphate buffer 10 mM, and within 30 min, 50 microliters of such bacterial suspension (10^6 CFU/ml) were inoculated in each well of the microtiter plate, to obtain a final bacterial concentration of about 5×10^5 CFU/ml.\n(§2) Several synthetic peptides were tested for their ability to inhibit bacterial growth. Fifty microliters of peptide at a concentration comprised between about 0.2 mM and about 50 mM were added to 96-well U-bottom plates containing phosphate buffer and one of the following bacteria: S. aureus ATCC 25923, meticillin-resistant S. aureus ATCC 43300. After 2 hour incubation at 37° C., bacteria were transferred on a solid medium. As a control, the bacterial cultures were cultured in the absence of peptide.\n(§3) The bacterial suspension was put in contact for two hours with different concentrations of the peptide at the temperature of 37° C. After incubation, 20 μl were drawn from the wells of each dilution and seeded on solid medium, Columbia agar supplemented with 5% bovine red blood cells for Gram-positive bacteria. The inoculum was evenly distributed on the agarized medium by means of a sterile disposable loop. After incubation for 24 hours at the temperature of 37° C., counting of the bacterial colonies (CFU) was performed."}, "[1]": {"test_system": "meticillin-resistant S. aureus ATCC 43300", "test": "Broth-microdilution test and subsequent plating on agar, Gram-positive bacteria", "type": "cell-based, Staphylococcus aureus", "settings": "2 h contact at 37° C., CFU count after 24 h", "experimental": "as §1, §2, §3"}, "[2]": {"test_system": "Candida albicans ATCC 10231", "test": "Broth-microdilution test and subsequent plating on agar, fungi (yeasts)", "type": "cell-based", "settings": "2 h contact at 37° C., CFU count on agar Sabouraud", "experimental": "The inoculum was set up by culturing Candida albicans ATCC 10231 and Malassezia pachydermatis ATCC 14522 in Czapek-Dox broth medium (DIFCO) for 48-72 h. On the assay day, the fungal culture was centrifuged at 1700×g for 15 min, the pellet was resuspended in phosphate buffer and submitted to shaking by the use of an electric vortex to disperse the fungal cell aggregates. The suspension was diluted until an optical density equal to an opacity of 0.5 on the McFarland turbidimetric scale was reached, which contains approximately 1-5×10^6 cell/ml (Branda J. A., Krantz A. Effectc of yeast on automated cell counting. Am J Clin Pathol., 2006:126, 248-254).\nThe peptides were tested for their ability to inhibit fungal growth. Fifty microliters of peptide at a concentration comprised between about 0.2 mM and about 50 mM were added in 96-well U-bottom plates containing phosphate buffer and one of the following fungi: Candida albicans ATCC 10231 and Malassezia pachydermatis ATCC 14522. After 2 h incubation at 37° C., fungi were transferred on the solid medium agar Sabouraud. As a control, fungal cultures were cultured in the absence of peptide.\nThe fungal suspension was put in contact for two hours with different concentrations of the peptide at the temperature of 37° C. After incubation, 20 μl were drawn from the wells of each dilution and seeded on the solid medium agar Sabouraud. The inoculum was evenly distributed on the agarized medium by means of a sterile disposable loop. After incubation for 24 h at the temperature of 37° C., counting of the fungal colonies (CFU) was performed."}, "E. coli ML-35pYC": {"test_system": "E. coli ML-35pYC", "test": "Membrane permeabilization assay (CENTA / ONPG kinetics)", "type": "cell-based, Escherichia coli", "settings": "peptide 12.5 μg/ml, logistic 4-parameter fit, read up to 240 min", "experimental": "The strain ML-35pYC of E. coli was used to assay the kinetics of membrane permeabilization performed by the peptides of the invention. This bacterial strain expresses resistance to ampicillin, constitutive expression of cytoplasmic beta-galactosidase, and is engineered with a plasmid for the synthesis of a periplasmic beta-lactamase. Sixty microliters (60 μl) of bacterial suspension of strain ML-35pYC of E. coli were added to 60 μl of a 15 mM solution of ONPG or 1.5 mM of CENTA in phosphate buffer. Subsequently, 120 μl of the test peptides were added to obtain a final concentration of 12.5 μg/ml. The kinetics of the reaction was evaluated by recording the value of absorbance at […] and 405 nm, for ONPG and CENTA respectively, every 10 min up to a maximum of 240 min.\nBy “fitting” the experimental points with the logistic 4-parameter curve, it was possible to determine the inflexion point, that is the point where the curve changes direction, relative to the 3 test peptides. No inflexion point was observed during the assay with CENTA (inflexion point higher than 500 min)."}, "[3]": {"test_system": "Pseudomonas aeruginosa ATCC 27853", "type": "cell-based", "experimental": "as §1, with “min” for “min,”\n(§4) Several peptides were tested for their ability to inhibit bacterial growth in liquid culture. Fifty microliters of peptide at a concentration comprised between about 0.2 mM and 50 mM were added in 96-well U-bottom plates containing liquid growth medium and one of the following bacteria: Escherichia coli ATCC 25922, P. aeruginosa ATCC 27853, Stenotrophomonas maltophilia ATCC 13637. After 2 hour incubation at 37° C., bacteria were transferred on a solid medium. As a growth control, bacterial cultures were cultured in the absence of peptides.\n(§5) The bacterial suspension was put in contact for two hours with different concentrations of the peptide at the temperature of 37° C. After incubation, 20 μl were drawn from the wells of each dilution and seeded on solid medium, agar McConkey. The inoculum was evenly distributed on the agarized medium by means of a sterile disposable loop. After incubation for 24 h at the temperature of 37° C., counting of the bacterial colonies (CFU) was performed."}, "[4]": {"test_system": "Escherichia coli ATCC 25922", "type": "cell-based", "settings": "for LD90 E. coli ATCC 25922: 2 h contact at 37° C., CFU count after 24 h", "experimental": "as §1, with “min” for “min,”\nas §4, §5"}},
  "note": "Several values for one entry are separate records, joined by “and”; a condition that tells them apart may be missing. Equal entries are not always repeated. Where two headings read alike, the source gives them in different places.",
  "data": [
    {"smiles": "CC[C@H](C)[C@@H]1NC(=O)[C@H](CCCCN)NC(=O)[C@H](C)NC(=O)[C@@H](NC(=O)[C@H](CCCCN)NC(=O)[C@@H](N)Cc2c[nH]cn2)CSSC[C@@H](C(=O)N[C@@H](C)C(=O)O)NC(=O)[C@H](Cc2ccc(O)cc2)NC(=O)[C@H](CCCCN)NC(=O)[C@H](C(C)C)NC(=O)[C@H](Cc2c[nH]cn2)NC(=O)[C@H](C(C)C)NC(=O)CNC(=O)[C@H](CCCNC(=N)N)NC(=O)[C@H](Cc2c[nH]c3ccccc23)NC(=O)[C@H](CCCCN)NC1=O", "note": "(relative stereo) [Peptide P2041, HIS*LYS*CYS*ALA*LYS*ILE*LYS*TRP*ARG*GLY*VAL*HIS*VAL*LYS*TYR*CYS*ALA]", "values": [
      {"measurement": "LD90 S. aureus ATCC 25923", "setting": "S. aureus ATCC 25923", "value": 1.42, "unit": "µM"},
      {"measurement": "LD90 S. aureus ATCC 25923", "setting": "S. aureus ATCC 25923; listed as 2041", "value": "1.42 μM and 2.89 μg/ml"},
      {"measurement": "LD90 MRSA ATCC 43300", "setting": "[1]", "value": 0.85, "unit": "µM"},
      {"measurement": "LD90 MRSA ATCC 43300", "setting": "[1]; listed as 2041", "value": "0.85 μM and 1.72 μg/ml"},
      {"measurement": "LD90 Candida albicans", "setting": "[2]", "value": 1.42, "unit": "µM"},
      {"measurement": "Inflexion point CENTA", "setting": "E. coli ML-35pYC; CENTA substrate (periplasmic beta-lactamase)", "value": ">500", "unit": "min"},
      {"measurement": "Inflexion point ONPG", "setting": "E. coli ML-35pYC; ONPG substrate (cytoplasmic beta-galactosidase)", "value": 16.08, "unit": "min"},
      {"measurement": "LD90 P. aeruginosa ATCC 27853", "setting": "[3]; 2 h contact at 37° C., CFU count after 24 h", "value": 2.14, "unit": "µM"},
      {"measurement": "MBC P. aeruginosa ATCC 27853", "setting": "[3]; ATCC 27853", "value": 2.08, "unit": "µg/mL"},
      {"measurement": "LD90 E. coli ATCC 25922", "setting": "[4]", "value": 0.83, "unit": "µM"},
      {"measurement": "LD90 E. coli ATCC 25922", "setting": "[4]; listed as 2041", "value": "1.57 μg/ml and 0.83 μM"},
      {"measurement": "MBC E. coli ATCC 25922", "setting": "[4]; ATCC 25922", "value": 3.05, "unit": "µg/mL"}
    ]}
  ]
}
